In PMC11062894, “Protein-based bandpass filters for controlling cellular signaling with chemical inputs” (Nature Chemical Biology, 2023):

Test system: GEMS receptors with CBPA11 (BclXL–LD3 and BclXLhigh variants), STAT3-driven SEAP in HEK293T cells
Test: GEMS SEAP reporter assay, CBPA11 (BclXLhigh, LD3-v and BclXL-v variants) with A-1155463
Assay type: cell-based
Parameters: key to Raw data (SEAP) / SEAP, replicate values / Raw data of Figure 5b / Raw data Figure 5e / Raw data of Independent repeat of CBPA11-v1 vs CBPA11-v1-LD3v3 / Raw data of Independent repeat of CBPA11-v3 vs CBPA11-v3-LD3v3 / Raw data of Figure 5b, CBPA11-v1-LD3v3 (SEAP reporter raw value, single replicate) / Raw data of Figure 5b, CBPA11-v1 (SEAP reporter raw value, single replicate): SEAP activity in U/L in culture supernatant
Settings: SuppFigure 9c
Description: To rationally design a CBP responding to a chemical input, we used BclXL as the druglow receptor, LD3 as the designed binder and a designed BclXL variant as the drughigh receptor (referred to as BclXLhigh) to construct a CBP responsive to BclXL inhibitors (Fig. 4a). To design BclXLhigh, we used a multistate design computational protocol described elsewhere[26] […] Thus, BclXLhigh-v(1–3) were chosen as the functional drughigh receptors, resulting in three A-1155463-controlled CBPs (referred to as CBPA11-v(1–3)) (Fig. 4c–e).
HEK293T cells were seeded in a 96-well plate 24 h before transfection. The transfection mix in each well consisted of 3 ng of constitutive human CMV promoter driven mammalian STAT3 expression vector (PhCMV-STAT3-pA), 30 ng of STAT3-induced reporter expression (OStat3-PhCMVmin-SEAP-pA) and 50 ng of expression vectors for each GEMS receptor chain (PSV40-IgK-(drughigh receptor)-EpoRm-IL-6RBm-pA and PSV40-IgK-(druglow receptor-GGGGSX3-LD3)-EpoRm-IL-6RBm-pA). For the specific drughigh receptor and druglow receptor used in the different cellular assays, they are indicated as wild type or with mutations. Then, plasmid DNA was mixed with 50 μl opti-MEM (Thermo Fisher) and 600 ng of polyethyleneimine (Polysciences, catalog no. 24765-1). For drug treatment experiments, drugs were added 12 h post-transfection and incubated with cells for 24 h before the SEAP reporter detection assay.
SEAP activity (U l^−1) in cell culture supernatants was quantified by kinetic measurements at 405 nm (1 minute per measurement for 30 cycles) of absorbance increase due to phosphatase-mediated hydrolysis of para-nitrophenyl phosphate (pNPP).
Binding affinities of SPR drug competition assays were calculated using three-parameter nonlinear regression in GraphPad Prism (v.8.3.0). Representative data of cell assays are presented as individual values and mean values (bars). n = 3 refers to biological replicates. All IC50 or EC50 values of cell assays reported were calculated using four-parameter nonlinear regression ± s.d. Bandpass features of cutoff concentrations and Bandwidth90% were estimated based on the curve fitted using bell-shaped curve nonlinear regression in GraphPad Prism (v.8.3.0). […]
Supplementary Figure 4: Design, screening and validation of BclXLhigh variants. a) Screening of BclXLhigh variants in the GEMS platform. […]
Dissociation constant measurement of BclXLhigh-v(1-3) and LD3. Equilibrium curves are fitted using […]
BclXLhigh-v1 (purple), BclXLhigh-v2 (blue), […]
a) Bcl2high-based bandpass filter designs were developed and to respond to different concentrations of […]
corresponding inhibitor. c) Screening of Bcl2high-based bandpass filter variants in the GEMS platform.
The designed binder LD3 was fused to the druglow-receptor (PSV40-IgK-Bcl2-LD3-EpoRm-IL-6RBm-pA) in one EpoR chain and Bcl2high variants with the insensitive Bcl2 (iBcl2) as control in the other EpoR chain (PSV40-IgK-Bcl2high-EpoRm-IL-6RBm-pA). HEK293T cells were transfected with indicated […]
the mean of six biological replicates ± s.d., overlaid with a scatter dot plot of the original data points.
(1 picture or pasted object on this page, not shown here)
Supplementary Figure 6: Binding affinities and drug resistances of Bcl2high-v(2,4,5) assessed by […]
a) Measurement of dissociation constants for Bcl2high-v(2,4,5) and LD3 interactions. Equilibrium curves […]
Bcl2high-v(2,4,5) measured by SPR. 5 μM of Bcl2 or indicated variants were mixed with 10 μM of […]
Bcl2high-v2 (red), Bcl2high-v4
Supplementary Figure 7: Screening of LD3 variants in CBPA11-v(1-3) and raw data of CBPA11-v(1,3) with LD3-v3 variant. a-c) Screening of LD3 and LD3-v(1-3) variants in complex with BclXL for more sensitive CBPA11-v1 (a), CBPA11-v2 (b), CBPA11-v3 (c) in the GEMS platform. The LD3 variants replaced the role of LD3 (PSV40-IgK-BclXL-LD3-v(1-3)-EpoRm-IL-6RBm-pA) in one EpoR chain and BclXLhigh-v(1-3) in the other EpoR chain (PSV40-IgK-BclXLhigh-V(1-3)-EpoRm-IL-6RBm-pA). HEK293T cells were transfected with […]

For `CN(C)CC#Cc1ccc(OCCCc2sc(N3CCc4cccc(C(=O)Nc5nc6ccccc6s5)c4C3)nc2C(=O)O)c(F)c1` [A-1155463], the “Raw data (SEAP)” value (LD3, A-1155463 316 nM) was 61.2138, the “Normalized data (SEAP)” value (LD3, A-1155463 1000 nM) was 55.4364 and the “Raw data (SEAP)” value (LD3, A-1155463 1000 nM) was 44.3919. The “Normalized data (SEAP)” value (LD3, A-1155463 3160 nM) was 36.9566, the “Raw data (SEAP)” value (LD3, A-1155463 3160 nM) was 29.5938 and the “Normalized data (SEAP)” value (LD3, A-1155463 10000 nM) was 17.181. The “Raw data (SEAP)” value (LD3, A-1155463 10000 nM) was 13.758, the “Normalized data (SEAP)” value (LD3v1, A-1155463 1 nM) was 5.697 and the “Raw data (SEAP)” value (LD3v1, A-1155463 1 nM) was 3.397. For the same molecule, the “Normalized data (SEAP)” value (LD3v1, A-1155463 3.16 nM) was 9.008, the “Raw data (SEAP)” value (LD3v1, A-1155463 3.16 nM) was 5.371 and the “Normalized data (SEAP)” value (LD3v1, A-1155463 10 nM) was 34.145. For the same molecule, the “Raw data (SEAP)” value (LD3v1, A-1155463 10 nM) was 20.3588, the “Normalized data (SEAP)” value (LD3v1, A-1155463 31.6 nM) was 55.6344 and the “Raw data (SEAP)” value (LD3v1, A-1155463 31.6 nM) was 33.1716. For the same molecule, the “Normalized data (SEAP)” value (LD3v1, A-1155463 100 nM) was 100, the “Raw data (SEAP)” value (LD3v1, A-1155463 100 nM) was 59.6244 and the “Normalized data (SEAP)” value (LD3v1, A-1155463 316 nM) was 84.0823. The “Raw data (SEAP)” value (LD3v1, A-1155463 316 nM) was 50.1335, the “Normalized data (SEAP)” value (LD3v1, A-1155463 1000 nM) was 65.4287 and the “Raw data (SEAP)” value (LD3v1, A-1155463 1000 nM) was 39.0114. The “Normalized data (SEAP)” value (LD3v1, A-1155463 3160 nM) was 35.6708, the “Raw data (SEAP)” value (LD3v1, A-1155463 3160 nM) was 21.2685 and the “Normalized data (SEAP)” value (LD3v1, A-1155463 10000 nM) was 16.487. The “Raw data (SEAP)” value (LD3v1, A-1155463 10000 nM) was 9.83, the “Normalized data (SEAP)” value (LD3v2, A-1155463 1 nM) was 18.0278 and the “Raw data (SEAP)” value (LD3v2, A-1155463 1 nM) was 19.4289. The “Normalized data (SEAP)” value (LD3v2, A-1155463 3.16 nM) was 13.8407, the “Raw data (SEAP)” value (LD3v2, A-1155463 3.16 nM) was 14.9163 and the “Normalized data (SEAP)” value (LD3v2, A-1155463 10 nM) was 72.4321. For the same molecule, the “Raw data (SEAP)” value (LD3v2, A-1155463 10 nM) was 78.0614, the “Normalized data (SEAP)” value (LD3v2, A-1155463 31.6 nM) was 98.2639 and the “Raw data (SEAP)” value (LD3v2, A-1155463 31.6 nM) was 105.901. For the same molecule, the “Normalized data (SEAP)” value (LD3v2, A-1155463 100 nM) was 100, the “Raw data (SEAP)” value (LD3v2, A-1155463 100 nM) was 107.772 and the “Normalized data (SEAP)” value (LD3v2, A-1155463 316 nM) was 90.2158. The “Raw data (SEAP)” value (LD3v2, A-1155463 316 nM) was 97.2273, the “Normalized data (SEAP)” value (LD3v2, A-1155463 1000 nM) was 79.3099 and the “Raw data (SEAP)” value (LD3v2, A-1155463 1000 nM) was 85.4738. For the same molecule, the “Normalized data (SEAP)” value (LD3v2, A-1155463 3160 nM) was 45.5807, the “Raw data (SEAP)” value (LD3v2, A-1155463 3160 nM) was 49.1232 and the “Normalized data (SEAP)” value (LD3v2, A-1155463 10000 nM) was 26.3886. For the same molecule, the “Raw data (SEAP)” value (LD3v2, A-1155463 10000 nM) was 28.4395, the “Normalized data (SEAP)” value (LD3v3, A-1155463 1 nM) was 53.0121 and the “Raw data (SEAP)” value (LD3v3, A-1155463 1 nM) was 3.893. For the same molecule, the “Normalized data (SEAP)” value (LD3v3, A-1155463 3.16 nM) was 45.4436 and the “Raw data (SEAP)” value (LD3v3, A-1155463 3.16 nM) was 3.337.
